{"source": "patent US10294202B2", "about": "“Pyrrolidinones as herbicides” (FMC Corporation, priority 2013, dated 2019)", "key": {"[1]": {"tested_on": "waterplantain", "test": "Test F flood (paddy) test", "assay_type": "in vivo, Alisma plantago-aquatica", "conditions": "21 d, scale 0-100", "text": "Three plastic pots (ca. 16-cm diameter) per rate were partially filled with sterilized Tama silt loam soil comprising a 35:50:15 ratio of sand, silt and clay and 2.6% organic matter. Separate plantings for each of the three pots were as follows. Seeds from the U.S. of monochoria (Monochoria vaginalis), sedge, umbrella (small-flower umbrella sedge, Cyperus difformis), bulrush, […] bulrush, Scirpus juncoides), and […] (purple […] coccinea), were planted into one 16-cm pot for each rate. Seeds from the U.S. of flatsedge, rice (rice flatsedge, Cyperus iria), sprangletop, Brdd. (bearded sprangletop, Leptochloa fascicularis), one stand of 9 or 10 water seeded rice seedlings (Rice, W.S. Jap, Oryza sativa cv. 'Japonica-[…]' or Rice, W.S. Ind, 'Indica'), and two stands of 3 or 4 seedlings of rice, transplanted (transplanted rice, Oryza sativa cv. 'Japonica-[…]') were planted into one 16-cm pot for each rate. Seeds from the U.S. of barnyardgrass (Echinochloa crus-galli), […] (common […], Alisma plantago-aquatica), and watergrass, late (late watergrass, Echinochloa oryzicola) were planted into one 16-cm pot for each rate. Plantings were sequential so that crop and weed species were at the 2.0 to 2.5-leaf stage at time of treatment. Potted plants were grown in a greenhouse with day/night temperature settings of 30/27° C., and supplemental balanced lighting was provided to maintain a 16-h photoperiod. Test pots were maintained in the greenhouse until test completion. At time of treatment, test pots were flooded to 3 cm above the soil surface, treated by application of test compounds directly to the paddy water, and then maintained at that water depth for the duration of the test. Effects of treatments on rice and weeds were visually evaluated by comparison to untreated controls after 21 d. Plant response ratings, summarized in Table F, are based on a scale of 0 to 100 where 0 is no effect and 100 is complete control. A dash (-) response means no test result."}, "[2]": {"tested_on": "Rice, W.S. Jap", "test": "Test F flood (paddy) test", "assay_type": "in vivo, Oryza sativa cv. Japonica—M202", "conditions": "21 d, scale 0-100", "how_it_was_run": "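In this paddy assay, 2.0–2.5-leaf plants grown in sterilized Tama silt loam (2.6% organic matter) at 30/27 °C with 16-h photoperiod receive compound via the 3-cm flood water. Control is rated visually at 21 d from 0 (none) to 100 (complete), versus untreated pots.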"}, "[3]": {"tested_on": "giant foxtail (SETFA)", "test": "Test H preemergence mixture test (Colby)", "assay_type": "in vivo, Setaria faberii", "conditions": "for Plant response rating, Obsd., SETFA: 21 d after treatment, scale 0 to 100; for SETFA Obsd.: applied alone, 21 d, mean of three replicates, scale 0-100"}}, "data": [{"smiles": "O=C1NCCC1C(=O)N(c1ccc(F)c(F)c1)c1ccccc1F", "note": "(centres unmarked) [Compound 5, N-(3,4-difluorophenyl)-N-(2-fluorophenyl)-2-oxo-3-pyrrolidinecarboxamide]", "values": [{"measurement": "Plant response rating, Waterplantain", "setting": "[1]; 125 g ai/ha", "result": 55}, {"measurement": "Plant response rating, Waterplantain", "setting": "[1]; 250 g ai/ha", "result": 70}, {"measurement": "Plant response rating, Waterplantain", "setting": "[1]; 500 g ai/ha", "result": 80}, {"measurement": "Plant response rating, Waterplantain", "setting": "[1]; 1000 g ai/ha", "result": 85}, {"measurement": "Plant response rating, Waterplantain", "setting": "[1]; 2000 g ai/ha", "result": 90}]}, {"smiles": "O=C1NCC(c2ccc(F)c(F)c2)C1C(=O)Nc1cccc(F)c1F", "note": "(centres unmarked) [Compound 17, N-(2,3-difluorophenyl)-4-(3,4-difluorophenyl)-2-oxo-3-pyrrolidinecarboxamide]", "values": [{"measurement": "Plant response rating, Rice, W.S. Jap", "setting": "[2]; 125 g ai/ha", "result": 0}, {"measurement": "Plant response rating, Rice, W.S. Jap", "setting": "[2]; 250 g ai/ha", "result": 15}, {"measurement": "Plant response rating, Rice, W.S. Jap", "setting": "[2]; 500 g ai/ha", "result": 15}, {"measurement": "Plant response rating, Rice, W.S. Jap", "setting": "[2]; 1000 g ai/ha", "result": 60}, {"measurement": "Plant response rating, Rice, W.S. Jap", "setting": "[2]; 2000 g ai/ha", "result": 85}]}, {"smiles": "O=C1NCC(c2ccc(C(F)(F)F)cc2)C1C(=O)Nc1cccc(F)c1F", "note": "(centres unmarked) [Compound 80, N-(2,3-difluorophenyl)-2-oxo-4-[4-(trifluoromethyl)phenyl]-3-pyrrolidinecarboxamide]", "values": [{"measurement": "Plant response rating, Obsd., SETFA", "setting": "[3]; Cmpd 80 alone 62 g a.i./ha", "result": 52}, {"measurement": "Plant response rating, Obsd., SETFA", "setting": "[3]; Cmpd 80 alone 125 g a.i./ha", "result": 78}, {"measurement": "SETFA Obsd.", "setting": "[3]; 62 g a.i./ha", "result": 52}, {"measurement": "SETFA Obsd.", "setting": "[3]; 125 g a.i./ha", "result": 78}]}]}
